In US11028085B2, “Substituted isoindolin-1-ones and 2,3-dihydro-1h-pyrrolo[3,4-c]pyridin-1-ones as hpk1 antagonists” (Nimbus Saturn, Inc., priority 2019, dated 2021):

Target: HPK1 (Homo sapiens (Human), UniProt Q92918)
Test: HPK1 biochemical enzyme assay (microfluidic mobility shift assay)
Conditions: 1.5 nM HPK1, ATP 1 mM final, 60 min at RT, Caliper EZ Reader; read-out: HPK1 1000UMATP caliper IC50
Procedure: HPK1 biochemical enzyme assay: HPK1 enzyme inhibition was measured using a microfluidic mobility shift assay. […] Test compounds were titrated in ten point curves (top final assay concentration […]), and preincubated with enzyme/substrate mix for 30 min prior to initiation of the reaction by addition of ATP (1 mM final concentration) and substrate (1 μM final concentration; Carna Biosciences) diluted in assay buffer supplemented by MgCl2 (final assay concentration of 5 mM). Following 60 min incubation at RT, the reaction was terminated by addition of 60 µl/well termination buffer (Carna Biosciences) and signal determination using a Caliper EZ Reader (Perkin Elmer, UK). […] The compound numbers correspond to the compound numbers in Table 1.

Sequence of HPK1 (Q92918 whole entry): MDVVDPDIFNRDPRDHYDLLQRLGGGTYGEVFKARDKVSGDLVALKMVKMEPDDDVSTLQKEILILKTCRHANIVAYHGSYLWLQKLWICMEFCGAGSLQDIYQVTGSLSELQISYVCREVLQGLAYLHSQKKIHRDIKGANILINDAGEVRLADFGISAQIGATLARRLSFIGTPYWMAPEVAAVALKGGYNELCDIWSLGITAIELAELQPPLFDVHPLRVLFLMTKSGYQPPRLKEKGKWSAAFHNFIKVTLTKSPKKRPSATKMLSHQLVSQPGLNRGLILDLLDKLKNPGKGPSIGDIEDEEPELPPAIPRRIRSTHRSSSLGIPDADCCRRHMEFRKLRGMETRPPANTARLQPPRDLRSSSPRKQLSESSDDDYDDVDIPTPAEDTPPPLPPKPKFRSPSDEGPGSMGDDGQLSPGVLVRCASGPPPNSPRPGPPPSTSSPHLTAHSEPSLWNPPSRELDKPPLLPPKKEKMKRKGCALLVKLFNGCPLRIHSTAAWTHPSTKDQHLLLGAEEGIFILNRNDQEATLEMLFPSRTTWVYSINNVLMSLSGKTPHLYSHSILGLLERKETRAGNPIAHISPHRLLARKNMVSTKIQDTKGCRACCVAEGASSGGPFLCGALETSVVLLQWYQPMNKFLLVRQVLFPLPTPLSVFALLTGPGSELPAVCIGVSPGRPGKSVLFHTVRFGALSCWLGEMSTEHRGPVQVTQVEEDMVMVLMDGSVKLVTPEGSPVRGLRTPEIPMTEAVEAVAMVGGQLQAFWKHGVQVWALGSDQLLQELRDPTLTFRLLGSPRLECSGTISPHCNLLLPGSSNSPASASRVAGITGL

(R)-7-((6- ((dimethylamino)- methyl)-5-(3-(2- hydroxypropan- 2-yl)piperidin-1- yl)pyridin-2- yl)amino)-4-(7- fluoroimidazo [1,2-a]pyridin- 3-yl)isoindolin- 1-one [I-745]
IC50: < 100 nM

(S)-7-((6- ((dimethylamino)- methyl)-5-(3-(2- hydroxypropan- 2-yl)piperidin-1- yl)pyridin-2- yl)amino)-4-(7- fluoroimidazo [1,2-a]pyridin- 3-yl)isoindolin- 1-one [I-746]
IC50: < 100 nM
